Laboratory results: the NIST ThermoML archive (doi:10.1016/j.tca.2011.12.010)
Numbers after ± are expanded uncertainties.

Assays:
[1] = DTA
[2] = Molar enthalpy of transition or fusion; conditions: DSC

In the case of `O=[N+]([O-])[O-].O=[N+]([O-])[O-].O=[N+]([O-])[O-].O=[N+]([O-])[O-].[K+].[K+].[Mg+2]` [bis-potassium magnesium nitrate], the Triple point temperature ([1]; Crystal 1) is reported as 468.85 ± 0.5 K, the Triple point temperature ([1]; Crystal 2) is reported as 404.8 ± 0.5 K and the “Molar enthalpy of transition or fusion” value ([2]; Crystal 1) is reported as 4.95 ± 0.151 kcal/mol. For the same compound, the “Molar enthalpy of transition or fusion” value ([2]; Crystal 2) was 0.648 ± 0.0478 kcal/mol.
